Experimental findings from patent US20100184699A1, “Peptide Derived From Prostate-Related Protein As Cancer Vaccine Candidate For Prostate Cancer Patient Who Is Positive For Hla-A3 Super-Type Allele Molecule” (priority 2005, published 2010) are described below.

For the experiment, the system named is peptide-specific IgG in plasma of prostate cancer patients and healthy donors. Nature of the experiment: Detection of peptide-specific IgG in plasma by ELISA. In kind it is binding, human. Particulars: for IgG reactive to peptide in plasma: 1:100-diluted plasma.
[1] abbreviates: Prostate cancer patient 12, A11.
[2] abbreviates: Prostate cancer patient 20, A33.
The mark [3] stands for this setting: Prostate cancer patient 14, A33.
[4] abbreviates: Prostate cancer patient 17, A33.
[5] abbreviates: Prostate cancer patient 19, A33.

As for “DLVYVNYAR (PSMA 173-181) [PSMA-derived peptide]”, the “IgG reactive to peptide in plasma, Total (positive/tested)” value (from here on “IgG reactive … (positive/tested)”) (Healthy donors) was 0/9 and the “IgG reactive … (positive/tested)” value (Prostate cancer patients) is on record as 5/20. Besides, the “IgG reactive to peptide in plasma” value (Prostate cancer patient 4, A31) is listed as “+ (IgG reactive to a corresponding peptide was judged to be positive when a difference of the optical density (OD) in a 1:100-diluted plasma was more than 100)”; the “IgG reactive to peptide in plasma” value (Prostate cancer patient 5, A31) was “+ (IgG reactive to a corresponding peptide was judged to be positive when a difference of the optical density (OD) in a 1:100-diluted plasma was more than 100)”; the “IgG reactive to peptide in plasma” value (Prostate cancer patient 6, A31) was “+ (IgG reactive to a corresponding peptide was judged to be positive when a difference of the optical density (OD) in a 1:100-diluted plasma was more than 100)”; the “IgG reactive to peptide in plasma” value under setting [1] is recorded as “+ (IgG reactive to a corresponding peptide was judged to be positive when a difference of the optical density (OD) in a 1:100-diluted plasma was more than 100)”; the “IgG reactive to peptide in plasma” value under setting [2] was “+ (IgG reactive to a corresponding peptide was judged to be positive when a difference of the optical density (OD) in a 1:100-diluted plasma was more than 100)”.

As to “EYFVEMYYR (PAP 324-332) [PAP-derived peptide]”, the “IgG reactive … (positive/tested)” value by setting is: (Healthy donors) 0/9; (Prostate cancer patients) 1/20. Besides, the “IgG reactive to peptide in plasma” value under setting [3] was “+ (IgG reactive to a corresponding peptide was judged to be positive when a difference of the optical density (OD) in a 1:100-diluted plasma was more than 100)”.

On to “FIDPLGLPDR (PSMA 675-684) [PSMA-derived peptide]”, for which the “IgG reactive … (positive/tested)” value is given as 0/9 (Healthy donors) and 10/20 (Prostate cancer patients). Besides, the “IgG reactive to peptide in plasma” value is recorded as “+ (IgG reactive to a corresponding peptide was judged to be positive when a difference of the optical density (OD) in a 1:100-diluted plasma was more than 100)” (Prostate cancer patient 2, A31); “+ (IgG reactive to a corresponding peptide was judged to be positive when a difference of the optical density (OD) in a 1:100-diluted plasma was more than 100)” (Prostate cancer patient 4, A31); “+ (IgG reactive to a corresponding peptide was judged to be positive when a difference of the optical density (OD) in a 1:100-diluted plasma was more than 100)” (Prostate cancer patient 5, A31); “+ (IgG reactive to a corresponding peptide was judged to be positive when a difference of the optical density (OD) in a 1:100-diluted plasma was more than 100)” (Prostate cancer patient 6, A31); “+ (IgG reactive to a corresponding peptide was judged to be positive when a difference of the optical density (OD) in a 1:100-diluted plasma was more than 100)” (Prostate cancer patient 8, A11); “+ (IgG reactive to a corresponding peptide was judged to be positive when a difference of the optical density (OD) in a 1:100-diluted plasma was more than 100)” (Prostate cancer patient 9, A11). Also, the “IgG reactive to peptide in plasma” value under setting [1] is reported as “+ (IgG reactive to a corresponding peptide was judged to be positive when a difference of the optical density (OD) in a 1:100-diluted plasma was more than 100)”, the “IgG reactive to peptide in plasma” value under setting [4] is “+ (IgG reactive to a corresponding peptide was judged to be positive when a difference of the optical density (OD) in a 1:100-diluted plasma was more than 100)”, the “IgG reactive to peptide in plasma” value under setting [5] is reported as “+ (IgG reactive to a corresponding peptide was judged to be positive when a difference of the optical density (OD) in a 1:100-diluted plasma was more than 100)” and the “IgG reactive to peptide in plasma” value under setting [2] is on record as “+ (IgG reactive to a corresponding peptide was judged to be positive when a difference of the optical density (OD) in a 1:100-diluted plasma was more than 100)”.

As for FLLFFWLDR [PAP 20-28], the “IgG reactive … (positive/tested)” value is, setting by setting: (Healthy donors) 0/9; (Prostate cancer patients) 1/20. The “IgG reactive to peptide in plasma” value under setting [3] is “+ (IgG reactive to a corresponding peptide was judged to be positive when a difference of the optical density (OD) in a 1:100-diluted plasma was more than 100)”.

In the case of “FQRLGIASGR (PSMA 525-534) [PSMA-derived peptide]”, the “IgG reactive … (positive/tested)” value reads like this: (Healthy donors) 0/9; (Prostate cancer patients) 11/20. In addition, the “IgG reactive to peptide in plasma” value is, setting by setting: (Prostate cancer patient 2, A31) “+ (IgG reactive to a corresponding peptide was judged to be positive when a difference of the optical density (OD) in a 1:100-diluted plasma was more than 100)”; (Prostate cancer patient 4, A31) “+ (IgG reactive to a corresponding peptide was judged to be positive when a difference of the optical density (OD) in a 1:100-diluted plasma was more than 100)”; (Prostate cancer patient 5, A31) “+ (IgG reactive to a corresponding peptide was judged to be positive when a difference of the optical density (OD) in a 1:100-diluted plasma was more than 100)”; (Prostate cancer patient 6, A31) “+ (IgG reactive to a corresponding peptide was judged to be positive when a difference of the optical density (OD) in a 1:100-diluted plasma was more than 100)”; (Prostate cancer patient 8, A11) “+ (IgG reactive to a corresponding peptide was judged to be positive when a difference of the optical density (OD) in a 1:100-diluted plasma was more than 100)”; (Prostate cancer patient 9, A11) “+ (IgG reactive to a corresponding peptide was judged to be positive when a difference of the optical density (OD) in a 1:100-diluted plasma was more than 100)”. For the same sequence, the “IgG reactive to peptide in plasma” value is, setting by setting: under setting [1], “+ (IgG reactive to a corresponding peptide was judged to be positive when a difference of the optical density (OD) in a 1:100-diluted plasma was more than 100)”; (Prostate cancer patient 16, A33) “+ (IgG reactive to a corresponding peptide was judged to be positive when a difference of the optical density (OD) in a 1:100-diluted plasma was more than 100)”; under setting [4], “+ (IgG reactive to a corresponding peptide was judged to be positive when a difference of the optical density (OD) in a 1:100-diluted plasma was more than 100)”; under setting [5], “+ (IgG reactive to a corresponding peptide was judged to be positive when a difference of the optical density (OD) in a 1:100-diluted plasma was more than 100)”; under setting [2], “+ (IgG reactive to a corresponding peptide was judged to be positive when a difference of the optical density (OD) in a 1:100-diluted plasma was more than 100)”.

For GLPDRPFYR [PSMA 680-688], the “IgG reactive … (positive/tested)” value by setting is: (Healthy donors) 0/9; (Prostate cancer patients) 12/20. Moreover, the “IgG reactive to peptide in plasma” value runs as follows: (Prostate cancer patient 2, A31) “+ (IgG reactive to a corresponding peptide was judged to be positive when a difference of the optical density (OD) in a 1:100-diluted plasma was more than 100)”; (Prostate cancer patient 4, A31) “+ (IgG reactive to a corresponding peptide was judged to be positive when a difference of the optical density (OD) in a 1:100-diluted plasma was more than 100)”; (Prostate cancer patient 6, A31) “+ (IgG reactive to a corresponding peptide was judged to be positive when a difference of the optical density (OD) in a 1:100-diluted plasma was more than 100)”; (Prostate cancer patient 7, A11) “+ (IgG reactive to a corresponding peptide was judged to be positive when a difference of the optical density (OD) in a 1:100-diluted plasma was more than 100)”; (Prostate cancer patient 8, A11) “+ (IgG reactive to a corresponding peptide was judged to be positive when a difference of the optical density (OD) in a 1:100-diluted plasma was more than 100)”; (Prostate cancer patient 9, A11) “+ (IgG reactive to a corresponding peptide was judged to be positive when a difference of the optical density (OD) in a 1:100-diluted plasma was more than 100)”. For the same sequence, the “IgG reactive to peptide in plasma” value runs as follows: (Prostate cancer patient 10, A11) “+ (IgG reactive to a corresponding peptide was judged to be positive when a difference of the optical density (OD) in a 1:100-diluted plasma was more than 100)”; under setting [1], “+ (IgG reactive to a corresponding peptide was judged to be positive when a difference of the optical density (OD) in a 1:100-diluted plasma was more than 100)”; (Prostate cancer patient 13, A11) “+ (IgG reactive to a corresponding peptide was judged to be positive when a difference of the optical density (OD) in a 1:100-diluted plasma was more than 100)”; under setting [3], “+ (IgG reactive to a corresponding peptide was judged to be positive when a difference of the optical density (OD) in a 1:100-diluted plasma was more than 100)”; under setting [2], “+ (IgG reactive to a corresponding peptide was judged to be positive when a difference of the optical density (OD) in a 1:100-diluted plasma was more than 100)”.
